Assay results published in US10814612B2, “Use of thiazolide compounds for the prevention and treatment of viral diseases, cancer and diseases caused by intracellular infections” (priority 2011, dated 2020).
Like-named read-outs stand apart in the source and are kept apart here.

Columns and labels:
[1] = test system: rotavirus gastroenteritis, norovirus gastroenteritis and chronic hepatitis C; details: clinical trials; cited from earlier work
[2] = test system: RNA and DNA viruses including influenza A and hepatitis C viruses; details: cited from earlier work
CD14+ cells (monocytes) = format: cell-based, human
[3] = test system: Toll-Like Receptor signalling pathway; assay: TLR pathway Real-time PCR array (84 genes) in PBMC; format: cell-based, human; details: 3 hours
[4] = test system: Type I interferon signalling pathway; assay: Type I interferon pathway Real-time PCR array (84 genes) in PBMC; format: cell-based, human
CD4+ T cells = assay: T helper functions: IFNγ- and IL2-secreting CD4+ T cells; format: cell-based, human; details: for IFN-γ production by CD4+ T cells: 0.5 μg/ml
CD8+ T cells = assay: CTL activity: perforin-, granzyme- and Fas-expressing CD8+ T cells; format: cell-based, human; details: for percentage of Fas-expressing CD8+ T cells: 20 and 40 μg/ml
[5] = humans, cited from earlier work
[6] = all five doses, unstimulated and flu-stimulated
[7] = flu-stimulated PBMC, all doses tested
[8] = flu-stimulated PBMC, 3 hours, 1 μg/ml
[9] = PMBCs, TIZ 0.5, 1.0 and 10 mg/ml, FIG. 3A
[10] = after oral nitazoxanide or nitazoxanide plus tizoxanide

CC(=O)Oc1ccccc1C(=O)Nc1ncc([N+](=O)[O-])s1 [Nitazoxanide, 2-(acetolyloxy)-N-(5-nitro-2-thiazolyl) benzamide]
effectiveness in treating chronic hepatitis C [1]: effective | effectiveness in treating norovirus gastroenteritis [1]: effective | effectiveness in treating rotavirus gastroenteritis [1]: effective | replication of RNA and DNA viruses including influenza A and hepatitis C viruses [2]: inhibit replication

O=C(Nc1ncc(Cl)s1)c1ccccc1O [RM-4848, N-(5-chlorothiazol-2-yl)-2-hydroxybenzamide]
TLR3-expressing CD14+ cells (CD14+ cells (monocytes); [6]): no effect | TLR8-expressing CD14+ cells (CD14+ cells (monocytes); [6]): no effect | percentage of TLR7-expressing CD14+ cells compared to control (CD14+ cells (monocytes); flu-antigenic stimulation, 1.0 μg/ml dose: p=0.001, 10 μg/ml dose: p=0.023): increase | percentage of TLR7-expressing CD14+ cells compared to control (CD14+ cells (monocytes); unstimulation condition): no significative differences | INFA1 mRNA fold increase ([3]; flu-stimulated PBMC, 1 μg/ml): ~6 fold | INFB1 mRNA fold increase ([3]; flu-stimulated PBMC, 1 μg/ml): ~6 fold | TLR3 mRNA fold increase ([3]; flu-stimulated PBMC, 1 μg/ml): ~7 fold | TLR5 mRNA fold increase ([3]; flu-stimulated PBMC, 1 μg/ml): ~7 fold | TLR9 mRNA fold increase ([3]; flu-stimulated PBMC, 20 μg/ml): ~6 fold | TLR8 mRNA fold change [3, 7]: > 2 fold | TLR-7 mRNA fold change [3, 7]: > 2 fold | IL1A mRNA fold increase ([3]; un-stimulated PBMC, 20 μg/ml): ~5 fold | IL1B mRNA fold increase ([3]; un-stimulated PBMC, 20 μg/ml): ~5 fold | IL6 mRNA fold increase ([3]; un-stimulated PBMC, 20 μg/ml): ~6 fold | IFI27 mRNA fold increase ([4]; flu-stimulated PBMC, 10 μg/ml): > 4 fold | IFIT1 mRNA fold increase ([4]; flu-stimulated PBMC, 10 μg/ml): > 4 fold | IFNA2 mRNA fold increase [4, 8]: 6 fold | INFA1 mRNA fold increase [4, 8]: 10 fold | INFA4 mRNA fold increase [4, 8]: 10 fold | INFB1 mRNA fold increase [4, 8]: 8 fold | expression of the ISGs, IFI27 and IFIT1 ([4]; flu-stimulated PBMC, the three dose levels (1, 10, 20 μg/ml)): moderately up-regulated | Type I IFN inducible genes (CD70, COL16A1, HSPA1L, IFI27, IFIT1, NRG1 and SHB) ([4]; summary of Examples 4-8): upregulated | INFA1 mRNA fold decrease ([4]; un-stimulated PBMC, 20 μg/ml): 20 fold | INFA2 mRNA fold decrease ([4]; un-stimulated PBMC, 20 μg/ml): 15 fold | INFA4 mRNA fold decrease ([4]; un-stimulated PBMC, 20 μg/ml): 10 fold | INFB1 mRNA fold decrease ([4]; un-stimulated PBMC, 20 μg/ml): 15 fold | down-regulating effects on interferon genes ([4]; un-stimulated PBMC, two lower doses of 1 and 10 μg/ml): not seen | IFN-γ production by CD4+ T cells (CD4+ T cells; Flu-stimulated conditions, p=0.050): statistically significant upregulation | IFN-γ production by CD4+ T cells (CD4+ T cells; un-stimulated cells, p=0.035): statistically significant upregulation | percentage of Fas-expressing CD8+ T cells (CD8+ T cells; Flu-stimulated, p=0.003): statistically significantly increased | degranulation of CTLs, evaluated by reduction in perforin expression (CD8+ T cells; three higher dose levels tested): induced a degranulation | percentage of Fas-expressing CD8+ T cells (CD8+ T cells; un-stimulated, p=0.006): statistically significantly increased

O=C(Nc1ncc([N+](=O)[O-])s1)c1ccccc1O [Tizoxanide]
TLR3- expression on monocytes (CD14+ cells (monocytes)): increase | TLR7- expression on monocytes (CD14+ cells (monocytes)): increase | TLR8- expression on monocytes (CD14+ cells (monocytes)): increase | IFNα-mRNA expression [4, 9]: increase | IFNβ-mRNA expression [4, 9]: increase | mRNA specific for type I IFN inducible genes (MXA, PRKCZ, ADAR, CXCL10, IRF1, PRKRA) ([4]; PMBCs, TIZ 0.5, 1.0 and 10 mg/ml, FIG. 3B): increase | mRNA specific for gene involved in MHC class I presentation (HLA-A, HLA-B, TAP1) ([4]; PMBCs, TIZ 0.5, 1.0 and 10 mg/ml, FIG. 3C): increase | IFNγ-secreting CD4+ T cells (CD4+ T cells; PMBCs, TIZ 0.5, 1.0 and 10 mg/ml, unstimulated and flu-stimulated, FIG. 4A): increase | IL2-secreting CD4+ T cells (CD4+ T cells; PMBCs, TIZ 0.5, 1.0 and 10 mg/ml, unstimulated and flu-stimulated, FIG. 4B): increase | CTL degranulation (CD8+ T cells; PMBCs, TIZ 0.5, 1.0 and 10 mg/ml, FIG. 5B): increase | Fas-expressing CD8+ T cells (CD8+ T cells; PMBCs, TIZ 0.5, 1.0 and 10 mg/ml, FIG. 5C): increase | replication of RNA and DNA viruses including influenza A and hepatitis C viruses [2]: inhibit replication | half-life in plasma [5, 10]: approximately 1.5 hours | urinary elimination half-life [5, 10]: 7.3 h | plasma protein binding [5]: bound to plasma proteins
